Assay results reported in patent US20260325561A1, “4'-SUBSTITUTED NUCLEOSIDES AND NUCLEOTIDES AS ANTIVIRAL AGENTS” (THE SCRIPPS RESEARCH INSTITUTE, priority 2023, published 2026).

Experiments:
SARS-CoV-2 = experiment: microbe, parasite or virus in culture; assay type: cell-based, SARS-CoV-2 strain USA-WA1/2020; conditions: Severe acute respiratory syndrome coronavirus 2, HeLa-ACE2, 24 h, read-out: SARS-CoV-2 / HeLa-ACE2 EC50
DENV-2 = experiment: microbe, parasite or virus in culture; assay type: cell-based, DENV-2 16681; conditions: Dengue virus, DENV2, HepG2, 24 h, read-out: DENV-2 / HepG2 EC50
in vitro [1] = conditions: human, hep2 cells
RSV A2 = experiment: microbe, parasite or virus in culture; assay type: cell-based; conditions: human respiratory syncytial virus, HEp-2, 72 h, read-out: RSV A2 / Hep2 EC50
in vitro [2] = conditions: human, h1 hela cells
HRV 14 = experiment: microbe, parasite or virus in culture; assay type: cell-based, Human Rhinovirus 14 strain 1059; conditions: Rhinovirus B, H1-HeLa, 48 h, read-out: HRV / H1 HeLa B 14 EC50
in vitro [3] = conditions: human, hepg2 cells
in vitro [4] = conditions: human, hela-ace2 cells

| Compound | EC50 (SARS-CoV-2) [µM] | EC50 (DENV-2) [µM] | CC50 (in vitro [1]) [µM] | EC50 (RSV A2) [µM] | CC50 (in vitro [2]) [µM] | EC50 (HRV 14) [µM] | CC50 at 72 h (in vitro [3]) [µM] | CC50 at 24 h (in vitro [4]) [µM] |
| --- | --- | --- | --- | --- | --- | --- | --- | --- |
| CNc1nc(N)nc2c1ncn2[C@@H]1O[C@](F)(COP(=O)(N[C@@H](C)C(=O)OC(C)C)Oc2ccccc2)[C@@H](O)[C@]1(F)Cl (single isomer, unassigned) [Example 58] | > 10 | 0.1 to 1 | > 99 | > 10 | > 99 | 0.1 to 1 | > 99 | > 99 |
| CNc1nc(N)nc2c1ncn2[C@@H]1O[C@](F)(COP(=O)(N[C@@H](C)C(=O)OC(C)C)Oc2ccccc2)[C@@H](O)[C@]1(F)Cl (single isomer, unassigned) [Example 59] | > 10 | 1 to 10 | > 99 | > 10 | > 99 | 1 to 10 | > 99 | > 99 |
| CO[C@]1(CO)O[C@@H](c2ccc3c(N)ncnn23)[C@](C)(O)[C@@H]1O [Example 3, (2R,3S,4R,5S)-5-(4-aminopyrrolo[2,1-f][1,2,4]triazin-7-yl)-2-(hydroxymethyl)-2-methoxy-4-methyltetrahydrofuran-3,4-diol] | > 10 | > 10 | > 99 | > 10 | > 99 | > 10 | > 99 | > 99 |
| [N-]=[N+]=N[C@]1(CO)C[C@@H](O)[C@H](n2ccc3c(N)ncnc32)O1 [Example 8, (2R,3R,5R)-2-(4-amino-7H-pyrrolo[2,3-d]pyrimidin-7-yl)-5-azido-5-(hydroxymethyl)tetrahydrofuran-3-ol] | > 10 | > 10 | > 99 | > 10 | > 99 | > 10 | > 99 | > 99 |
| C[C@]1(O)[C@H](c2ccc3c(N)ncnn23)O[C@@](CO)(N=[N+]=[N-])[C@H]1O [Example 9, (2R,3S,4R,5S)-5-(4-aminopyrrolo[2,1-f][1,2,4]triazin-7-yl)-2-azido-2-(hydroxymethyl)-4-methyltetrahydrofuran-3,4-diol] | > 10 | > 10 | > 99 | > 10 | > 99 | > 10 | > 99 | > 99 |
| Nc1ncnc2c1ccn2[C@@H]1O[C@](F)(CO)C[C@H]1O [Example 11, (2R,3R,5R)-2-(4-amino-7H-pyrrolo[2,3-d]pyrimidin-7-yl)-5-fluoro-5-(hydroxymethyl)tetrahydrofuran-3-ol] | > 10 | > 10 | > 99 | > 10 | 10 to 99 | > 10 | 10 to 99 | > 99 |
| Nc1ncnc2c1ccn2[C@@H]1O[C@@](F)(CO)C[C@H]1O [Example 12, (2R,3R,5S)-2-(4-amino-7H-pyrrolo[2,3-d]pyrimidin-7-yl)-5-fluoro-5-(hydroxymethyl)tetrahydrofuran-3-ol] | > 10 | > 10 | > 99 | > 10 | 10 to 99 | > 10 | > 99 | > 99 |
| CSc1nc(N)nc2c1ncn2[C@@H]1O[C@](F)(CO)[C@@H](O)[C@H]1O [Example 28] | > 10 | 0.1 to 1 | 1 to 10 | 0.1 to 1 | 1 to 10 | > 10 | 1 to 10 | 1 to 10 |
| N#Cc1cn([C@@H]2O[C@](F)(CO)[C@@H](O)[C@H]2O)c2nc[nH]c(=O)c12 [Example 37, 7-((2R,3R,4S,5S)-5-fluoro-3,4-dihydroxy-5-(hydroxymethyl)tetrahydrofuran-2-yl)-4-oxo-4,7-dihydro-3H-pyrrolo[2,3-d]pyrimidine-5-carbonitrile] | > 10 | > 10 | > 99 | > 10 | > 99 | > 10 | > 99 | > 99 |
| COc1ncnc2c1c(C(N)=O)cn2[C@@H]1O[C@](F)(CO)[C@@H](O)[C@H]1O [Example 38, 7-((2R,3R,4S,5S)-5-fluoro-3,4-dihydroxy-5-(hydroxymethyl)tetrahydrofuran-2-yl)-4-methoxy-7H-pyrrolo[2,3-d]pyrimidine-5-carboxamide] | > 10 | 1 to 10 | 10 to 99 | > 10 | 10 to 99 | > 10 | 1 to 10 | < 1 |
| COc1ncnc2c1ccn2[C@@H]1O[C@](F)(CO)C[C@H]1O [Example 39, (2R,3R,5R)-5-fluoro-5-(hydroxymethyl)-2-(4-methoxy-7H-pyrrolo[2,3-d]pyrimidin-7-yl)tetrahydrofuran-3-ol] | > 10 | > 10 | > 99 | > 10 | > 99 | > 10 | > 99 | > 99 |
| Nc1ncnc2c1c(C(F)(F)F)cn2[C@@H]1O[C@](F)(CO)[C@@H](O)[C@H]1O [Example 42, (2S,3S,4R,5R)-5-(4-amino-5-(trifluoromethyl)-7H-pyrrolo[2,3-d]pyrimidin-7-yl)-2-fluoro-2-(hydroxymethyl)tetrahydrofuran-3,4-diol] | – | < 0.1 | – | – | – | – | < 1 | – |
| CC(C)C(=O)OC[C@@]1(F)O[C@@H](n2ccc3c(N)ncnc32)[C@H](O)[C@@H]1O [Example 46, ((2S,3S,4R,5R)-5-(4-amino-7H-pyrrolo[2,3-d]pyrimidin-7-yl)-2-fluoro-3,4-dihydroxytetrahydrofuran-2-yl)methyl isobutyrate] | 0.1 to 1 | < 0.1 | 10 to 99 | 0.1 to 1 | 10 to 99 | 0.1 to 1 | 1 to 10 | 1 to 10 |
| CC(C)C(=O)OC[C@@]1(F)O[C@@H](n2ccc3c(N)ncnc32)[C@H](OC(=O)C(C)C)[C@@H]1OC(=O)C(C)C [Example 47, (2S,3S,4R,5R)-5-(4-amino-7H-pyrrolo[2,3-d]pyrimidin-7-yl)-2-fluoro-2-((isobutyryloxy)methyl)tetrahydrofuran-3,4-diyl bis(2-methylpropanoate)] | 1 to 10 | < 0.1 | 1 to 10 | < 0.1 | 10 to 99 | 1 to 10 | 1 to 10 | 10 to 99 |
| N#C[C@@]1(c2cnc3c(N)ncnn23)O[C@](F)(CO)[C@@H](O)[C@H]1O [Example 51, (2R,3R,4S,5S)-2-(4-aminoimidazo[2,1-f][1,2,4]triazin-7-yl)-5-fluoro-3,4-dihydroxy-5-(hydroxymethyl)tetrahydrofuran-2-carbonitrile] | > 10 | > 10 | > 99 | > 10 | > 99 | > 10 | > 99 | > 99 |
| Nc1ncnc2c1cnn2[C@@H]1O[C@](F)(CO)[C@@H](O)[C@H]1O [Example 52, (2S,3S,4R,5R)-5-(4-amino-1H-pyrazolo[3,4-d]pyrimidin-1-yl)-2-fluoro-2-(hydroxymethyl)tetrahydrofuran-3,4-diol] | 1 to 10 | 1 to 10 | 1 to 10 | > 10 | 1 to 10 | 1 to 10 | < 1 | 1 to 10 |
| Cc1ncnc2c1ccn2[C@@H]1O[C@](F)(CO)[C@@H](O)[C@H]1O [Example 53, (2S,3S,4R,5R)-2-fluoro-2-(hydroxymethyl)-5-(4-methyl-7H-pyrrolo[2,3-d]pyrimidin-7-yl)tetrahydrofuran-3,4-diol] | – | 1 to 10 | > 99 | > 10 | > 99 | > 10 | 10 to 99 | – |
| OC[C@@]1(F)O[C@@H](n2ccc3c(C4CC4)ncnc32)[C@H](O)[C@@H]1O [Example 54, (2S,3S,4R,5R)-5-(4-cyclopropyl-7H-pyrrolo[2,3-d]pyrimidin-7-yl)-2-fluoro-2-(hydroxymethyl)tetrahydrofuran-3,4-diol] | – | > 10 | > 99 | > 10 | > 99 | > 10 | > 99 | – |
| Nc1ncnc2c1c(-c1nc3ccccc3s1)cn2[C@@H]1O[C@](F)(CO)[C@@H](O)C1(F)F [Example 55, (2S,3R,5R)-5-(4-amino-5-(benzo[d]thiazol-2-yl)-7H-pyrrolo[2,3-d]pyrimidin-7-yl)-2,4,4-trifluoro-2-(hydroxymethyl)tetrahydrofuran-3-ol] | < 0.1 | – | – | – | – | – | – | 1 to 10 |
| CC(C)OC(=O)[C@H](C)NP(=O)(OC[C@@]1(F)O[C@@H](n2cnc3c(=O)[nH]c(N)nc32)C(F)(F)[C@@H]1O)Oc1ccccc1 (stereo partly drawn) [Example 61, isopropyl ((((2S,3R,5R)-5-(2-amino-6-oxo-1,6-dihydro-9H-purin-9-yl)-2,4,4-trifluoro-3-hydroxytetrahydrofuran-2-yl)methoxy)(phenoxy)phosphoryl)-L-alaninate] | – | > 10 | – | – | – | – | > 99 | – |
